From patent US8680159B2, “Bradykinin 1 receptor modulating compounds” (Gruenenthal GmbH, priority 2010, dated 2014)

biological target: T1, B1R receptor of the rat (CHO K1 cells stably transfected with the B1R gene of the rat) (Rattus norvegicus, UniProt P97583); assay: Functional study on the bradykinin receptor 1 (B1R), Ca2+ fluorescence (Fluo-4) FLIPR/Novostar assay, rB1R cells; format: cell-based; conditions: CHO-K1, 10 μM, read-out: % Inhibition (r-B1R) at 10 μM
T1 construct: expressed in transfected cells; host or cells: CHO K1 cells (Chinese hamster ovary), stably transfected
T1 sequence (P97583 1-337): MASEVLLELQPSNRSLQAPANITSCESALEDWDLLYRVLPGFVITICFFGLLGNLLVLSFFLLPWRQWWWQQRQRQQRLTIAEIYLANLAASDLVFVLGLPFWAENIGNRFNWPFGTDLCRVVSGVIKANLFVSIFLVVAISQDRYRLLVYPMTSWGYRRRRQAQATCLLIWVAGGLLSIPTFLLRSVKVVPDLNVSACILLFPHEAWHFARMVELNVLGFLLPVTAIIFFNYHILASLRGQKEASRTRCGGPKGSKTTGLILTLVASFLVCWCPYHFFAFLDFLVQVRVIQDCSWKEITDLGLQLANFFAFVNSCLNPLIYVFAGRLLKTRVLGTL
Procedure: The agonistic or antagonistic action of substances can be quantified on the bradykinin receptor 1 (B1R) of the species human and rat using ectopically expressing cell lines (CHO K1 cells) and with the aid of a Ca^2+-sensitive dye (Fluo-4) using a fluorescent imaging plate reader (FLIPR). The indication in % activation is based on the Ca^2+ signal after addition of Lys-Des-Arg^9-bradykinin (0.5 nM) or Des-Arg^9-bradykinin (100 nM). Antagonists lead to suppression of the Ca^2+ influx after the addition of the agonist. % Inhibition compared with the maximum achievable inhibition is indicated.
The agonistic or antagonistic action of substances can be determined on the bradykinin receptor 1 (B1R) of the species human and rat using the following assay. According to this assay, the increase in intracellular Ca^2+ following administration of a B1R agonist is quantified with the aid of a Ca^2+-sensitive dye (Fluo-4 type, Molecular Probes Europe BV, Leiden, Netherlands) using a Fluorescent Imaging Plate Reader (FLIPR, Molecular Devices, Sunnyvale, USA) and/or using a Novostar (BMG Labtech GmbH, Offenburg, Germany).
Chinese hamster ovary cells (CHO K1 cells) which have been stably transfected with the human B1R gene (hB1R cells) or with the B1R gene of the rat (rB1R cells) are used. For functional studies, the cells are plated out on black 96-well plates having a clear base (BD Biosciences, Heidelberg, Germany or Greiner, Frickenhausen, Germany) in a density of 20,000-35,000 cells/well. The cells are left overnight at 37° C. and with 5% CO2 in culture medium (hB1R cells: Nutrient Mixture Ham's F12, Gibco Invitrogen GmbH, Karlsruhe, Germany or DMEM, Sigma-Aldrich, Taufkirchen, Germany; rB1R cells: D-MEM/F12, Gibco Invitrogen GmbH, Karlsruhe, Germany), with 10 vol. % FBS (fetal bovine serum, Gibco Invitrogen GmbH, Karlsruhe, Germany or PAN Biotech GmbH, Aidenbach, Germany). On the following day, the cells are loaded for 60 minutes at 37° C. with 2.13 μM Fluo-4 (Molecular Probes Europe BV, Leiden, Netherlands) in HBSS buffer (Hank's buffered saline solution, Gibco Invitrogen GmbH, Karlsruhe, Germany) […] (Sigma-Aldrich, Taufkirchen, Germany) and 10 mM HEPES (Sigma-Aldrich, Taufkirchen, Germany). The plates are then washed twice with HBSS buffer, and HBSS buffer additionally containing 0.1% BSA (bovine serum albumin; Sigma-Aldrich, Taufkirchen, Germany), 5.6 mM glucose and 0.05% gelatin (Merck KGaA, Darmstadt, Germany) is added to the plates. After incubation for a further 20 minutes at room temperature, the plates are inserted into the FLIPR or Novostar for Ca^2+ measurement. Alternatively, washing is carried out with buffer A (15 mM HEPES, 80 mM NaCl, 5 mM KCl, 1.2 mM CaCl2, 0.7 mM MgSO4, 2 g/l glucose, 2.5 mM probenecid) followed by loading with buffer A with added 2.5 μM Fluo-4 and 0.025% Pluronic F127 (Sigma-Aldrich, Taufkirchen, Germany). The cells are then washed twice with buffer A and incubated for 30 minutes at room temperature with buffer A additionally containing 0.05% BSA and 0.05% gelatin and are then inserted into the FLIPR or Novostar for Ca^2+ measurement. The Ca^2+-dependent fluorescence is measured before and after the addition of substances (λex=488 nm, λem=540 nm). Quantification is carried out by measuring the highest fluorescence intensity (FC, fluorescence counts) over time.
The FLIPR protocol consists of 2 substance additions, which are pipetted in the FLIPR. In the case of measurements using the Novostar, only the second substance addition is pipetted in the device. Both devices measure the fluorescence intensity over time. Test substances (10 μM) are first pipetted onto the cells and the intracellular Ca^2+ increase is compared with the control (hB1R: Lys-Des-Arg^9-bradykinin>=50 nM; rB1R: Des-Arg^9-bradykinin>=1 μM). This gives the % activation, based on the Ca^2+ signal after addition of Lys-Des-Arg^9-bradykinin (>=50 nM) or Des-Arg^9-bradykinin (>=1 μM). […]

SMILES | inhibition at 10 µM
CN(C(=O)c1ccc2c(c1)C(NC(=O)c1cc(F)ccc1Cl)CC2)C1CCN(c2ccncc2)CC1 (centres unmarked) [CC_H-200, 3-[(2-Chloro-5-fluoro-benzoyl)amino]-N-methyl-N-(1-pyridin-4-yl-piperidin-4-yl)-2,3-dihydro-1H-indene-5-carboxylic acid amide] | 111%
CN(C(=O)c1ccc2c(c1)C(NC(=O)c1cc(C(F)(F)F)ccc1Cl)CC2)C1CCN(c2ccncc2)CC1 (centres unmarked) [CC_H-201, 3-[[2-Chloro-5-(trifluoromethyl)-benzoyl]amino]-N-methyl-N-(1-pyridin-4-yl-piperidin-4-yl)-2,3-dihydro-1H-indene-5-carboxylic acid amide] | 111%
Cc1ccc(F)c(C(=O)NC2CCc3ccc(C(=O)N(C)C4CCN(c5ccncc5)CC4)cc32)c1Cl (centres unmarked) [CC_H-202, 3-[(2-Chloro-6-fluoro-3-methyl-benzoyl)amino]-N-methyl-N-(1-pyridin-4-yl-piperidin-4-yl)-2,3-dihydro-1H-indene-5-carboxylic acid amide] | 111%
CN(C(=O)c1ccc2c(c1)C(NC(=O)c1cc(Cl)ccc1Cl)CC2)C1CCN(c2ccncc2)CC1 (centres unmarked) [CC_H-203, 3-[(2,5-Dichloro-benzoyl)amino]-N-methyl-N-(1-pyridin-4-yl-piperidin-4-yl)-2,3-dihydro-1H-indene-5-carboxylic acid amide] | 111%
CN(C(=O)c1ccc2c(c1)C(NC(=O)c1c(Cl)cccc1C(F)(F)F)CC2)C1CCN(c2ccncc2)CC1 (centres unmarked) [CC_H-204, 3-[[2-Chloro-6-(trifluoromethyl)-benzoyl]amino]-N-methyl-N-(1-pyridin-4-yl-piperidin-4-yl)-2,3-dihydro-1H-indene-5-carboxylic acid amide] | 110%
CN(C(=O)c1ccc2c(c1)C(NC(=O)C1CC1)CC2)C1CCN(c2ccncc2)CC1 (centres unmarked) [CC_H-205, 3-(Cyclopropanecarbonylamino)-N-methyl-N-(1-pyridin-4-yl-piperidin-4-yl)-2,3-dihydro-1H-indene-5-carboxylic acid amide] | 98%
CN(C(=O)c1ccc2c(c1)C(NC(=O)CC(C)(C)C)CC2)C1CCN(c2ccncc2)CC1 (centres unmarked) [CC_H-206, 3-(3,3-Dimethyl-butanoylamino)-N-methyl-N-(1-pyridin-4-yl-piperidin-4-yl)-2,3-dihydro-1H-indene-5-carboxylic acid amide] | 109%
COCC(=O)NC1CCc2ccc(C(=O)N(C)C3CCN(c4ccncc4)CC3)cc21 (centres unmarked) [CC_H-207, 3-[(2-Methoxy-acetyl)amino]-N-methyl-N-(1-pyridin-4-yl-piperidin-4-yl)-2,3-dihydro-1H-indene-5-carboxylic acid amide] | 89%
CN(C(=O)c1ccc2c(c1)C(N(C)C(=O)c1cc(F)ccc1Cl)CC2)C1CCN(c2ccncc2)CC1 (centres unmarked) [CC_H-208, 3-[(2-Chloro-5-fluoro-benzoyl)-methyl-amino]-N-methyl-N-(1-pyridin-4-yl-piperidin-4-yl)-2,3-dihydro-1H-indene-5-carboxylic acid amide] | 111%
Cc1ccc(F)c(C(=O)N(C)C2CCc3ccc(C(=O)N(C)C4CCN(c5ccncc5)CC4)cc32)c1Cl (centres unmarked) [CC_H-209, 3-[(2-Chloro-6-fluoro-3-methyl-benzoyl)-methyl-amino]-N-methyl-N-(1-pyridin-4-yl-piperidin-4-yl)-2,3-dihydro-1H-indene-5-carboxylic acid amide] | 112%
CN(C(=O)c1ccc2c(c1)C(N(C)C(=O)c1cc(Cl)ccc1Cl)CC2)C1CCN(c2ccncc2)CC1 (centres unmarked) [CC_H-210, 3-[(2,5-Dichloro-benzoyl)-methyl-amino]-N-methyl-N-(1-pyridin-4-yl-piperidin-4-yl)-2,3-dihydro-1H-indene-5-carboxylic acid amide] | 112%
CN(C(=O)c1ccc2c(c1)C(N(C)C(=O)C1CCCCC1)CC2)C1CCN(c2ccncc2)CC1 (centres unmarked) [CC_H-211, 3-(Cyclohexanecarbonyl-methyl-amino)-N-methyl-N-(1-pyridin-4-yl-piperidin-4-yl)-2,3-dihydro-1H-indene-5-carboxylic acid amide] | 108%
CN(C(=O)c1ccc2c(c1)C(N(C)C(=O)C1CC1)CC2)C1CCN(c2ccncc2)CC1 (centres unmarked) [CC_H-212, 3-(Cyclopropanecarbonyl-methyl-amino)-N-methyl-N-(1-pyridin-4-yl-piperidin-4-yl)-2,3-dihydro-1H-indene-5-carboxylic acid amide] | 108%

Second part, the molecule after the results:

inhibition at 10 µM | SMILES
110% | CN(C(=O)c1ccc2c(c1)C(N(C)C(=O)CC(C)(C)C)CC2)C1CCN(c2ccncc2)CC1 (centres unmarked) [CC_H-213, 3-(3,3-Dimethyl-butanoyl-methyl-amino)-N-methyl-N-(1-pyridin-4-yl-piperidin-4-yl)-2,3-dihydro-1H-indene-5-carboxylic acid amide]
65% | CC(=O)N(C)C1CCc2ccc(C(=O)N(C)C3CCN(c4ccncc4)CC3)cc21 (centres unmarked) [CC_H-215, 3-(Acetyl-methyl-amino)-N-methyl-N-(1-pyridin-4-yl-piperidin-4-yl)-2,3-dihydro-1H-indene-5-carboxylic acid amide]
110% | CN(C(=O)c1ccc2c(c1)C(N(C)C(=O)c1cccc(C(F)(F)F)c1Cl)CC2)C1CCN(c2ccncc2)CC1 (centres unmarked) [CC_H-216, 3-[[2-Chloro-3-(trifluoromethyl)-benzoyl]-methyl-amino]-N-methyl-N-(1-pyridin-4-yl-piperidin-4-yl)-2,3-dihydro-1H-indene-5-carboxylic acid amide]
94% | CN(C(=O)c1ccc2c(c1)C(N(C)C(=O)Nc1ccccc1Cl)CC2)C1CCN(c2ccncc2)CC1 (centres unmarked) [CC_H-217, 3-[[(2-Chlorophenyl)-carbamoyl]-methyl-amino]-N-methyl-N-(1-pyridin-4-yl-piperidin-4-yl)-2,3-dihydro-1H-indene-5-carboxylic acid amide]
109% | CN(C(=O)c1ccc2c(c1)C(N(C)C(=O)Nc1cccc(Cl)c1)CC2)C1CCN(c2ccncc2)CC1 (centres unmarked) [CC_H-218, 3-[[(3-Chlorophenyl)-carbamoyl]-methyl-amino]-N-methyl-N-(1-pyridin-4-yl-piperidin-4-yl)-2,3-dihydro-1H-indene-5-carboxylic acid amide]
86% | CN(C(=O)c1ccc2c(c1)C(N(C)C(=O)Nc1c(Cl)cccc1Cl)CC2)C1CCN(c2ccncc2)CC1 (centres unmarked) [CC_H-219, 3-[[(2,6-Dichloro-phenyl)-carbamoyl]-methyl-amino]-N-methyl-N-(1-pyridin-4-yl-piperidin-4-yl)-2,3-dihydro-1H-indene-5-carboxylic acid amide]
107% | CN(C(=O)c1ccc2c(c1)C(N(C)C(=O)Nc1cccc(Cl)c1Cl)CC2)C1CCN(c2ccncc2)CC1 (centres unmarked) [CC_H-220, 3-[[(2,3-Dichloro-phenyl)-carbamoyl]-methyl-amino]-N-methyl-N-(1-pyridin-4-yl-piperidin-4-yl)-2,3-dihydro-1H-indene-5-carboxylic acid amide]
